According to US8865731B2, “Inhibitor of analgesic tolerance” (Kyowa Hakko Kirin Co., Ltd., priority 2008, dated 2014):

Assays:
Male ddY mice [1] = test: Suppressing activity on morphine-induced constipation (number of fecal pellets); type: in vivo; settings: for number of fecal pellets: FIG. 2
Description: Food and water were provided ad libitum. At the time of collection of fecal pellets, food and water were not provided.
Morphine was dissolved in physiological saline at a concentration of 0.3 mg/mL and subcutaneously administered at a dose of 3 mg/kg.
On the day of the test, the tails of the mice were numbered for identification, and the body weight of each mouse was measured. On the basis of the measured body weight, 0.5% MC or Compound (IA) was orally administered. At 30 minutes after administration of 0.5% MC or Compound (IA), physiological saline or morphine was subcutaneously administered, and collection of fecal pellets was started. The fecal pellets were collected at 3 hours after administration of morphine. The amount of feces was evaluated by counting the number of the fecal pellets.

Male ddY mice [2] = test: Suppressing activity on morphine analgesic tolerance (hot plate method, response latency); type: in vivo; settings: for ΔChange (Latency at each time point − Pre value) 0.5 h / ΔChange (Latency at each time point − Pre value) 1 h / ΔChange (Latency at each time point − Pre value) 2 h: single morphine administration group: morphine 6 mg/kg s.c. only on day 7
adenosine A2A receptor = settings: known from the literature (Eur. J. Pharmacol., 1994, 267(3), 335 and others); cited from earlier work
Male ddY mice [3] = test: Suppressing activity on oxycodone analgesic tolerance (hot plate method, response latency); settings: for Latency (sec) Pre value (before drug administration on last day) / ΔChange (Latency at each time point − Pre value) 0.5 h / ΔChange (Latency at each time point − Pre value) 1 h / ΔChange (Latency at each time point − Pre value) 2 h: Table 6; for Latency (sec) Pre value (before drug administration on last day): day 4; for ΔChange (Latency at each time point − Pre value) 0.5 h: day 4, 0.5 h; for ΔChange (Latency at each time point − Pre value) 1 h: day 4, 1 h; for ΔChange (Latency at each time point − Pre value) 2 h: day 4, 2 h
[4] = Compound (IA) 10 mg/kg p.o. repeatedly administered alone
[5] = repeated combination group: Compound (IA) 10 mg/kg p.o. 30 min before oxycodone 20 mg/kg p.o., 4 days

CCCn1c(=O)c2c(nc(/C=C/c3ccc(OC)c(OC)c3)n2C)n(CCC)c1=O [Compound (IA)]
number of fecal pellets (Male ddY mice [1]; Compound (IA) 10 mg/kg p.o. 30 min before morphine 3 mg/kg s.c., 3 hours, vs morphine administration group): significantly increased
diarrhea (Male ddY mice [1]; combination: Compound (IA) 10 mg/kg p.o. and morphine 3 mg/kg s.c.): diarrhea was not induced
diarrhea (Male ddY mice [1]; only Compound (IA) 10 mg/kg p.o. administered): diarrhea was not induced
development of analgesic tolerance (response latency) (Male ddY mice [2]; Test Example 1, FIG. 1, Compound (IA) 10 mg/kg p.o. 30 min before morphine 6 mg/kg s.c., repeated 7 days): the development of analgesic tolerance was prevented
effect on the response latency (Male ddY mice [2]; Test Example 1, FIG. 1, Compound (IA) 10 mg/kg p.o. repeatedly administered alone): the effect on the response latency was not observed
adenosine A2A receptor antagonistic activity (adenosine A2A receptor): potent and selective
Latency (sec) Pre value (before drug administration on last day) (Male ddY mice [3]; [4]): 11.9 ± 1.2 s
ΔChange (Latency at each time point − Pre value) 0.5 h (Male ddY mice [3]; [4]): -0.2 ± 1.7 s
ΔChange (Latency at each time point − Pre value) 1 h (Male ddY mice [3]; [4]): -0.4 ± 2.2 s
ΔChange (Latency at each time point − Pre value) 2 h (Male ddY mice [3]; [4]): -0.1 ± 2.2 s
Latency (sec) Pre value (before drug administration on last day) (Male ddY mice [3]; [5]): 11.9 ± 0.7 s
ΔChange (Latency at each time point − Pre value) 0.5 h (Male ddY mice [3]; [5]): 13.5 ± 2.6 s
ΔChange (Latency at each time point − Pre value) 1 h (Male ddY mice [3]; [5]): 6.0 ± 1.6 s
ΔChange (Latency at each time point − Pre value) 2 h (Male ddY mice [3]; [5]): 2.2 ± 1.6 s
development of analgesic tolerance (response latency) (Male ddY mice [3]; Test Example 7, Compound (IA) 10 mg/kg p.o. 30 min before oxycodone 20 mg/kg p.o., 4 days): the development of analgesic tolerance was prevented
effect on the response latency (Male ddY mice [3]; Test Example 7, Compound (IA) 10 mg/kg p.o. repeatedly administered alone): the effect on the response latency was not observed

CN1CC[C@]23c4c5ccc(O)c4O[C@H]2[C@@H](O)C=C[C@H]3[C@H]1C5 [morphine, reference compound]
number of fecal pellets (Male ddY mice [1]; morphine 3 mg/kg s.c., pellets collected 3 hours after administration, vs normal group): significantly decreased
ΔChange (Latency at each time point − Pre value) 0.5 h (Male ddY mice [2]; Table 1): 21.9 ± 1.9 s
ΔChange (Latency at each time point − Pre value) 1 h (Male ddY mice [2]; Table 1): 11.8 ± 1.1 s
ΔChange (Latency at each time point − Pre value) 2 h (Male ddY mice [2]; Table 1): 2.9 ± 0.9 s
ΔChange (Latency at each time point − Pre value) 0.5 h (Male ddY mice [2]; Table 2): 20.2 ± 1.9 ^ sec
ΔChange (Latency at each time point − Pre value) 1 h (Male ddY mice [2]; Table 2): 6.3 ± 1.7 s
ΔChange (Latency at each time point − Pre value) 2 h (Male ddY mice [2]; Table 2): 2.3 ± 0.5 s
ΔChange (Latency at each time point − Pre value) 0.5 h (Male ddY mice [2]; Table 3): 19.5 ± 2.0 s
ΔChange (Latency at each time point − Pre value) 1 h (Male ddY mice [2]; Table 3): 6.4 ± 1.5 s
ΔChange (Latency at each time point − Pre value) 2 h (Male ddY mice [2]; Table 3): -0.8 ± 1.5 s
ΔChange (Latency at each time point − Pre value) 0.5 h (Male ddY mice [2]; Table 4): 16.8 ± 2.7 s
ΔChange (Latency at each time point − Pre value) 1 h (Male ddY mice [2]; Table 4): 10.4 ± 2.2 s
ΔChange (Latency at each time point − Pre value) 2 h (Male ddY mice [2]; Table 4): 8.8 ± 0.6 s
ΔChange (Latency at each time point − Pre value) 0.5 h (Male ddY mice [2]; Table 5): 18.0 ± 2.2 s
ΔChange (Latency at each time point − Pre value) 1 h (Male ddY mice [2]; Table 5): 6.8 ± 1.3 s
ΔChange (Latency at each time point − Pre value) 2 h (Male ddY mice [2]; Table 5): 1.9 ± 1.0 s
development of analgesic tolerance (response latency) (Male ddY mice [2]; Test Example 1, FIG. 1, morphine 6 mg/kg s.c. repeatedly for 7 days vs single morphine administration group): the development of analgesic tolerance was observed
development of analgesic tolerance (response latency) (Male ddY mice [2]; Test Example 3, morphine 6 mg/kg s.c. repeatedly for 7 days vs single morphine administration group): the development of analgesic tolerance was observed
development of analgesic tolerance (response latency) (Male ddY mice [2]; Test Example 4, morphine 6 mg/kg s.c. repeatedly for 7 days vs single morphine administration group): the development of analgesic tolerance was observed
development of analgesic tolerance (response latency) (Male ddY mice [2]; Test Example 5, morphine 6 mg/kg s.c. repeatedly for 7 days vs single morphine administration group): the development of analgesic tolerance was observed
development of analgesic tolerance (response latency) (Male ddY mice [2]; Test Example 6, morphine 6 mg/kg s.c. repeatedly for 7 days vs single morphine administration group): the development of analgesic tolerance was observed
